Reference: patent publication US8431597B2, “Benzimidazole derivatives” (Pfizer Inc., priority 2007, dated 2013)
Structures can show the parent of a compound that is named as a salt.

Molecular target: T1, Smoothened (SMO) (Mus musculus, UniProt P56726)
T1 construct: C3H10T1/2 cells (ATCC #CCL-226) were split and seeded; endogenous in cells; host or cells: C3H10T1/2 (ATCC #CCL-226)
Experiment: Smoothened (SMO)/Sonic Hedgehog (SHh) Transient Transcriptional Activation Assay (Gli-luciferase reporter in C3H10T1/2 cells)
Assay type: cell-based, murine
Conditions: transfected C3H10T1/2 cells, recombinant human SHh 250 ng/mL, 20 hours, luciferase readout; for inhibition at 2 µM: C3H 10T1/2, 2 μM compound, read-out: SMO CELL % INHIBITION @ 2 μM; for SMO CELL % INHIBITION @ 2 μM: 2 μM compound
Procedure: As noted above, the compounds of the invention are useful as inhibitors of SMO. • Methods for determining the in vitro activity of these compounds are described below: Smoothened (SMO)/Sonic Hedgehog (SHh) Transient Transcriptional Activation Assay
On Day 1, 2×10^6 C3H10T1/2 cells (ATCC #CCL-226) were split and seeded in 12 mL of growth medium Basal Medium Eagle (BME, Invitrogen #21010-046) supplemented with 2 mM L-glutamine (Invitrogen #25030-081), 0.1 units/mL penicillin and 0.1 μg/mL streptomycin (Invitrogen #15140-122), and 10% Fetal Bovine Serum (FBS, Invitrogen #16140-071) in a T-75 flask (Costar #3376). They were allowed to attach for 4 hours at 37° C., 5% CO2. The cells were then transfected using Fugene 6 (Roch #11 814 443 001) in the following reaction: 48 μL Fugene 6 and 745 μL Opti-MEM (Invitrogen #31985-070) were mixed and allowed to sit at room temperature for 5 minutes. 8 μg of pGL4.14/mGli(CS) DNA (10× murine Gli response elements and minimal CS promoter) and 0.5 μg of pEGFP DNA (Clontech) were added, gently mixed and incubated at room temperature for 20 minutes. This entire transfection mix was then added to the T-75 flask containing the cells. The cells were incubated at 37° C., 5% CO2 for 18-24 hours.
On Day 2, the transfected cells were trypsinized and seeded into white 96 well plates (Costar #3917) in 100 μL/well of growth medium at a concentration of 20,000 cells/well. The cells were allowed to recover for 4 hours before adding serum starvation medium Dulbecco's Modified Eagle Medium (DMEM, Invitrogen #21063-029) supplemented with 2 mM L-glutamine, 0.1 units/mL penicillin and 0.1 μg/mL streptomycin, and 0.5% Calf Serum (CS, Invitrogen #26170-043). The growth media was aspirated off, and the cells were rinsed with 100 μL of starvation media. 95 μL of starvation media was then added to each well. The cells were incubated for 20 hours at 37° C., 5% CO2.
On Day 3, cells were dosed with test compounds at a final concentration ranging from 2 μM to 2 nM. Immediately after dosing cells with compounds, recombinant human sonic hedgehog (SHh, R&D Systems #1845-SH) was add to a final concentration of 250 ng/mL. A 25 μg vial of SHh was reconstituted with 250 μL PBS/0.1% BSA to give a 100 ng/μL working stock. This working stock was then diluted 1:20 in starvation media. The transfected cells were incubated with compounds and SHh for 20 hours at 37° C., 5% CO2.
Luciferase assays were conducted on Day 4 using Dual-Glo Luciferase assay system (Promega #E2940) according to Promega's protocol. Briefly, Dual-Glo luciferase reagent was made up and 100 μL were added to each well of the 96 well plate containing media. Plates were shaken at room temperature for 10 minutes, and then read on TopCount (Perkin-Elmer). The luminescence was recorded.

T1 sequence (P56726 33-793): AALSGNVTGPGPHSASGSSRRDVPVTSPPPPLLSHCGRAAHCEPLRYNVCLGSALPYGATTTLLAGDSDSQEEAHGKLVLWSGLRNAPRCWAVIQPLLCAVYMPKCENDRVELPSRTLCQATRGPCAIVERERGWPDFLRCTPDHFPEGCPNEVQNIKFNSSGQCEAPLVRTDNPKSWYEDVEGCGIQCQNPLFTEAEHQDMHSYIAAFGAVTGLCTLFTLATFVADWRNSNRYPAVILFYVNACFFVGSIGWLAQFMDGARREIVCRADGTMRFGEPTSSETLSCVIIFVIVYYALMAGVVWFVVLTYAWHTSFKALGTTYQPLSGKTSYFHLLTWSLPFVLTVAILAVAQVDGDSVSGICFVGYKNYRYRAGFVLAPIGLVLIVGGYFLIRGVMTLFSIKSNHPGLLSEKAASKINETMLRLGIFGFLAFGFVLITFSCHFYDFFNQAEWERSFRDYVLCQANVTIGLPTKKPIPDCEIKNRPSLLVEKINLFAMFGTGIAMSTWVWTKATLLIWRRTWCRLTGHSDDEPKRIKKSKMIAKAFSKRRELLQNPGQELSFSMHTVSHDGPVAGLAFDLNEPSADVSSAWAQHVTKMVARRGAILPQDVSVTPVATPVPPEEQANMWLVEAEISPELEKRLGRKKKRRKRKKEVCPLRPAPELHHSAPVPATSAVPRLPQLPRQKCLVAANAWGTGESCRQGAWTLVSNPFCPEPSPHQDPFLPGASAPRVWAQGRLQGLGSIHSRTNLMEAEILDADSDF

Row | inhibition at 2 µM [%] | SMO CELL % INHIBITION @ 2 μM [%] | SMILES
1 | 109 | – | CN1CC[C@@H](NC(=O)Nc2ccc(C#N)cc2)C[C@@H]1c1nc2cc(C#N)ccc2[nH]1 [Example 19, 1-[(2R,4R)-2-(5-cyano-1H-benzimidazol-2-yl)-1-methylpiperidin-4-yl]-3-(4-cyanophenyl)urea hydrochloride]
2 | 108 | – | COc1ccc(NC(=O)N[C@@H]2CCN(C)[C@@H](c3nc4ccc(Cl)cc4[nH]3)C2)cn1 [Example 133, 1-[(2R,4R)-2-(6-chloro-1H-benzimidazol-2-yl)-1-methylpiperidin-4-yl]-3-(6-methoxypyridin-3-yl)urea hydrochloride]
3 | 107 | – | CN1CC[C@@H](NC(=O)Nc2ccc(F)nc2)C[C@@H]1c1nc2ccccc2[nH]1 [Example 32, 1-[(2R,4R)-2-(1H-benzimidazol-2-yl)-1-methylpiperidin-4-yl]-3-(6-fluoropyridin-3-yl)urea hydrochloride]
4 | 63.7 | – | CN1CC[C@@H](NC(=O)c2ccc3c(c2)NC(=O)CO3)C[C@@H]1c1nc2ccccc2[nH]1 [Example 100, N-[(2R,4R)-2-(1H-benzimidazol-2-yl)-1-methylpiperidin-4-yl]-3-oxo-3,4-dihydro-2H-1,4-benzoxazine-6-carboxamide hydrochloride]
5 | 103 | – | CN1CC[C@@H](NC(=O)Nc2ccc3c(c2)OCCO3)C[C@@H]1c1nc2ccccc2[nH]1 [Example 67, 1-[(2R,4R)-2-(1H-benzimidazol-2-yl)-1-methylpiperidin-4-yl]-3-(2,3-dihydro-1,4-benzodioxin-6-yl)urea hydrochloride]
6 | 100 | – | Cc1ccc2nccc(C(=O)N[C@@H]3CCN(C)[C@@H](c4nc5ccccc5[nH]4)C3)c2c1 [Example 103, N-[(2R,4R)-2-(1H-benzimidazol-2-yl)-1-methylpiperidin-4-yl]-6-methylquinoline-4-carboxamide trifluoroacetate]
7 | 62.3 | – | CN1CC[C@@H](NC(=O)c2ccc(C#N)cc2)C[C@@H]1c1nc2ccccc2[nH]1 [Example 121, N-[(2R,4R)-2-(1H-benzimidazol-2-yl)-1-methylpiperidin-4-yl]-4-cyanobenzamide trifluoroacetate]
8 | 108 | – | Cc1ccc(NC(=O)N[C@@H]2CCN(C)[C@@H](c3nc4ccc(F)cc4[nH]3)C2)cn1 [Example 132, 1-[(2R,4R)-2-(6-fluoro-1H-benzimidazol-2-yl)-1-methylpiperidin-4-yl]-3-(6-methylpyridin-3-yl)urea hydrochloride]
9 | 106 | – | Cc1cc(NC(=O)N[C@@H]2CCN(C)[C@@H](c3nc4ccccc4[nH]3)C2)cnc1F [Example 40, 1-[(2R,4R)-2-(1H-benzimidazol-2-yl)-1-methylpiperidin-4-yl]-3-(6-fluoro-5-methylpyridin-3-yl)urea hydrochloride]
10 | 100 | – | CN1CC[C@@H](NC(=O)Nc2ccccc2)C[C@@H]1c1nc2ccccc2[nH]1 [Example 75, 1-[(2R,4R)-2-(1H-benzimidazol-2-yl)-1-methylpiperidin-4-yl]-3-phenylurea hydrochloride]

More lines, now with the values behind:

Row | SMILES | inhibition at 2 µM [%] | SMO CELL % INHIBITION @ 2 μM [%]
11 | CN1CC[C@@H](NC(=O)c2ccc3c(c2)OCCO3)C[C@@H]1c1nc2ccccc2[nH]1 [Example 86, N-[(2R,4R)-2-(1H-benzimidazol-2-yl)-1-methylpiperidin-4-yl]-2,3-dihydro-1,4-benzodioxine-6-carboxamide hydrochloride] | 93.1 | –
12 | O=C(N[C@@H]1CCN(C2CCC2)[C@@H](c2nc3ccccc3[nH]2)C1)c1ccc2c(c1)OCCO2 [Example 82, N-[(2R,4R)-2-(1H-benzimidazol-2-yl)-1-cyclobutyl-piperidin-4-yl]-2,3-dihydro-1,4-benzodioxine-6-carboxamide hydrochloride] | 96.8 | –
13 | COc1ccc2nc([C@H]3C[C@H](NC(=O)c4ccc5c(c4)OCCO5)CCN3C)[nH]c2c1 [Example 38, N-[(2R,4R)-2-(6-methoxy-1H-benzimidazol-2-yl)-1-methylpiperidin-4-yl]-2,3-dihydro-1,4-benzodioxine-6-carboxamide hydrochloride] | 106 | –
14 | CN1CC[C@@H](NC(=O)Nc2ccc(C(F)(F)F)nc2)C[C@@H]1c1nc2cc(C(F)(F)F)ccc2[nH]1 [Example 35, 1-{(2R,4R)-1-methyl-2-[5-(trifluoromethyl)-1H-benzimidazol-2-yl]piperidin-4-yl}-3-[6-(trifluoromethyl)pyridin-3-yl]urea hydrochloride] | 107 | –
15 | O=C(N[C@@H]1CCN2CCn3c(nc4ccccc43)[C@H]2C1)c1ccc2c(c1)OCCO2 [Example 12, N-[(2R,13bR)-1,3,4,6,7,13b-hexahydro-2H-pyrido[2′,1′:3,4]pyrazino[1,2-a]benzimidazol-2-yl]-2,3-dihydro-1,4-benzodioxine-6-carboxamide hydrochloride] | 64.1 | –
16 | Cc1ccc(NC(=O)N[C@@H]2CCN(C)[C@@H](c3nc4cc(C)c(C)cc4[nH]3)C2)cn1 [Example 131, 1-[(2R(4R)-2-(5,6-dimethyl-1H-benzimidazol-2-yl)-1-methylpiperidin-4-yl]-3-(6-methylpyridin-3-yl)urea hydrochloride] | 105 | –
17 | COc1ccc2[nH]c([C@H]3C[C@H](NC(=O)Nc4ccc(C)nc4)CCN3C)nc2c1 [Example 129, 1-[(2R,4R)-2-(5-methoxy-1H-benzimidazol-2-yl)-1-methylpiperidin-4-yl]-3-(6-methylpyridin-3-yl)urea hydrochloride] | 104 | –
18 | CN1C[C@@H](NC(=O)Nc2ccc(Cl)c(C(F)(F)F)c2)C[C@H]1c1nc2ccc(F)cc2[nH]1 [Example 58, 1-[4-chloro-3-(trifluoromethyl)phenyl]-3-[(3S,5S)-5-(6-fluoro-1H-benzimidazol-2-yl)-1-methylpyrrolidin-3-yl]urea] | 104 | –
19 | COc1ccc2nc([C@@H]3C[C@H](NC(=O)Nc4ccc(Cl)c(C(F)(F)F)c4)CN3)[nH]c2c1 [Example 20, 1-[4-chloro-3-(trifluoromethyl)phenyl]-3-[(3S,5S)-5-(6-methoxy-1H-benzimidazol-2-yl)pyrrolidin-3-yl]urea] | 63 | –
20 | O=C(N[C@@H]1CN[C@H](c2nc3ccccc3[nH]2)C1)c1ccc2c(c1)OCCO2 [Example 9, N-[(3S,5S)-5-(1H-benzimidazol-2-yl)pyrrolidin-3-yl]-2,3-dihydro-1,4-benzodioxine-6-carboxamide] | – | 65.00
21 | CC(C)(C)OC(=O)N1C[C@H](NC(=O)Nc2ccc(Cl)c(C(F)(F)F)c2)C[C@H]1c1nc2ccccc2[nH]1 [Example 24, tert-butyl (2S,4R)-2-(1H-benzimidazol-2-yl)-4-[({[4-chloro-3-(trifluoromethyl)phenyl]amino}carbonyl)amino]pyrrolidine-1-carboxylate] | 63.1 | –
22 | CN1CC[C@@H](NC(=O)Nc2ccc(C(F)(F)F)cc2)C[C@@H]1c1nc2ccccc2[nH]1 [Example 18, 1-[(2R,4R)-2-(1H-benzimidazol-2-yl)-1-methylpiperidin-4-yl]-3-[4-(trifluoromethyl)phenyl]urea hydrochloride] | 110 | –
23 | CN1CC[C@@H](NC(=O)Nc2ccc(OC(F)(F)F)cc2)C[C@@H]1c1nc2ccccc2[nH]1 [Example 15, 1-[(2R,4R)-2-(1H-benzimidazol-2-yl)-1-methylpiperidin-4-yl]-3-[4-(trifluoromethoxy)phenyl]urea hydrochloride] | 111 | –
24 | O=C(N[C@@H]1CN[C@H](c2nc3ccccc3[nH]2)C1)c1ccc2c(c1)OCCO2 [Example 11, N-[(3S,5S)-5-(1H-benzimidazol-2-yl)pyrrolidin-3-yl]-2,3-dihydro-1,4-benzodioxine-6-carboxamide] | – | 110.10
25 | CN1CC[C@@H](NC(=O)Nc2ccc(Cl)cc2)C[C@@H]1c1nc2ccccc2[nH]1 [Example 30, 1-[(2R,4R)-2-(1H-benzimidazol-2-yl)-1-methylpiperidin-4-yl]-3-(4-chlorophenyl)urea hydrochloride] | 108 | –
